Reference: ChEMBL document CHEMBL4219217, “Structure-activity relationship study of a series of caspase inhibitors containing γ-amino acid moiety for treatment of cholestatic liver disease” (Bioorg Med Chem Lett, 2018)
pIC50: −log10 of the molar value. Each block holds one molecule with its values, some of them ahead of it. Activity calls are given as the source filed them. No cut-off for these calls is given here.

Legend:
[1] = AUC in C57BL/6J mouse liver at 1 mg/kg, po after 0.5 to 6 hrs by LC-MS/MS method; assay type: ADME, organism-based; set-up: time lower 0.5 hr, dose 1 mg/kg, time upper 6 hr, route oral; conditions: in vivo
[2] = tested on: Mus musculus; assay: AUC (0 to infinity) in C57BL/6J mouse at 1 mg/kg, iv after 0.25 to 24 hrs by LC-MS/MS method; assay type: ADME, organism-based; set-up: dose 1 mg/kg, time infinity, route intravenous; conditions: in vivo
[3] = tested on: Mus musculus; assay: (§1) AUC (0 to infinity) in C57BL/6J mouse at 10 mg/kg, po after 0.25 to 24 hrs by LC-MS/MS method; assay type: ADME, organism-based; set-up: dose 10 mg/kg, time infinity, route oral; conditions: in vivo
[4] = Cmax in C57BL/6J mouse at 10 mg/kg, po after 0.25 to 24 hrs by LC-MS/MS method; assay type: ADME, organism-based; set-up: dose 10 mg/kg, route oral; conditions: in vivo
[5] = target: T1, Caspase-3 (Homo sapiens, UniProt P42574); assay: Inhibition of Anti-Fas antibody-induced caspase-3 activity in human Jurkat E6-1 cells using Ac-DEVD-AMC substrate by fluorescence based assay; assay type: cell-based
T1 sequence (P42574 whole entry): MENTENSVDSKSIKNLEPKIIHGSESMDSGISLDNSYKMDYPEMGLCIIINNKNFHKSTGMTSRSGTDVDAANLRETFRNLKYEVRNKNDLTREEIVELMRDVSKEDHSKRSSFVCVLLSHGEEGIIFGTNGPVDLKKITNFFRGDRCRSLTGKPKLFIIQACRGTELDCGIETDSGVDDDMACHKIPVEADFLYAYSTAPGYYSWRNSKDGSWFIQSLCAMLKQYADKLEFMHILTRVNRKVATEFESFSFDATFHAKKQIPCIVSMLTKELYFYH

[6] = Stability in mouse plasma assessed as compound remaining level at 100 uM incubated for 2 hrs by LC-MS/MS method; assay type: ADME, cell-free
[7] = Stability in rat plasma assessed as compound remaining level at 100 uM incubated for 2 hrs by LC-MS/MS method; assay type: ADME, cell-free; conditions: for Stability: 2 h, 100 µM; for remaining at 2 h, 100 µM: read-out: Stability
[8] = as §1; assay type: ADME, organism-based; set-up: dose 10 mg/kg, time infinity, route oral; conditions: C57BL/6J, in vivo
[9] = tested on: Rattus norvegicus; assay: Reduction in serum direct bilirubin level in Sprague-Dawley rat model of alpha-naphthylisothiocyanate-induced cholestatic liver disease at 6 mg/kg administered intragastrically once daily for 1 week; assay type: functional, organism-based
[10] = tested on: Rattus norvegicus; assay: Reduction in serum indirect bilirubin level in Sprague-Dawley rat model of alpha-naphthylisothiocyanate-induced cholestatic liver disease at 6 mg/kg administered intragastrically once daily for 1 week; assay type: functional, organism-based
[11] = tested on: Rattus norvegicus; assay: Reduction in serum total bilirubin level in Sprague-Dawley rat model of alpha-naphthylisothiocyanate-induced cholestatic liver disease at 6 mg/kg administered intragastrically once daily for 1 week; assay type: functional, organism-based

AUC [1]: 2350 nmol·h/kg
AUC [2]: 0.446 µM·h
AUC [3]: 0.197 µM·h
Cmax [4]: 227 nM
pIC50 [5]: 8.22
Structure (SMILES): C[C@H](NC(=O)C(=O)Nc1ccccc1C(C)(C)C)C(=O)N[C@@H](CC(=O)O)C(=O)COc1c(F)c(F)cc(F)c1F [EMRICASAN]

Stability [6]: Stable
Stability [7]: Stable
Structure (SMILES): O=C(O)C[C@H](NC(=O)C1CCN(C(=O)OC2CCCC2)CC1)C(=O)COc1c(F)c(F)cc(F)c1F

AUC(0-inf) [8]: 3.66 µM·h
remaining at 2 h, 100 µM [7]: 93%
Cmax [4]: 1640 nM
Structure (SMILES): CC(C)(C)c1ccccc1NC(=O)C(=O)N1CCC(C(=O)N[C@@H](CC(=O)O)C(=O)COc2c(F)c(F)cc(F)c2F)CC1

Stability [6]: Unstable
Stability [7]: Unstable
Structure (SMILES): O=C(O)C[C@H](NC(=O)C1CCN(C(=O)Oc2ccccc2Cl)CC1)C(=O)COc1c(F)c(F)cc(F)c1F

remaining at 2 h, 100 µM [7]: 67%
Structure (SMILES): CC(C)(C)c1ccccc1NC(=O)C(=O)N1CCC[C@@H](C(=O)N[C@@H](CC(=O)O)C(=O)COc2c(F)c(F)cc(F)c2F)C1

AUC [1]: 804 nmol·h/kg
Structure (SMILES): O=C(O)C[C@H](NC(=O)C1CCN(C(=O)c2cccs2)CC1)C(=O)COc1c(F)c(F)cc(F)c1F

AUC [1]: 334 nmol·h/kg
Structure (SMILES): O=C(O)C[C@H](NC(=O)C1CCN(C(=O)C2CC(F)(F)C2)CC1)C(=O)COc1c(F)c(F)cc(F)c1F

AUC [1]: 2219 nmol·h/kg
AUC [2]: 0.852 µM·h
AUC [3]: 1.71 µM·h
Cmax [4]: 405 nM
Structure (SMILES): O=C(O)C[C@H](NC(=O)C1CCN(C(=O)C2CCCC2)CC1)C(=O)COc1c(F)c(F)cc(F)c1F
Activity [9]: Active
Activity [10]: Active
Activity [11]: Active
